Experimental data taken from ChEMBL document CHEMBL3826883, “Discovery of potent and selective inhibitors of human aminopeptidases ERAP1 and ERAP2 by screening libraries of phosphorus-containing amino acid and dipeptide analogues” (Bioorg Med Chem Lett, 2016).

Tests used:
[1] = biological target: Endoplasmic reticulum aminopeptidase 2 (Homo sapiens, UniProt Q6P179); assay: Inhibition of human ERAP2 preincubated for 30 to 60 mins followed by addition of Arg-AMC as substrate measured for 15 mins by spectrofluorimetric method
Chain of Endoplasmic reticulum aminopeptidase 2 (Q6P179 whole entry): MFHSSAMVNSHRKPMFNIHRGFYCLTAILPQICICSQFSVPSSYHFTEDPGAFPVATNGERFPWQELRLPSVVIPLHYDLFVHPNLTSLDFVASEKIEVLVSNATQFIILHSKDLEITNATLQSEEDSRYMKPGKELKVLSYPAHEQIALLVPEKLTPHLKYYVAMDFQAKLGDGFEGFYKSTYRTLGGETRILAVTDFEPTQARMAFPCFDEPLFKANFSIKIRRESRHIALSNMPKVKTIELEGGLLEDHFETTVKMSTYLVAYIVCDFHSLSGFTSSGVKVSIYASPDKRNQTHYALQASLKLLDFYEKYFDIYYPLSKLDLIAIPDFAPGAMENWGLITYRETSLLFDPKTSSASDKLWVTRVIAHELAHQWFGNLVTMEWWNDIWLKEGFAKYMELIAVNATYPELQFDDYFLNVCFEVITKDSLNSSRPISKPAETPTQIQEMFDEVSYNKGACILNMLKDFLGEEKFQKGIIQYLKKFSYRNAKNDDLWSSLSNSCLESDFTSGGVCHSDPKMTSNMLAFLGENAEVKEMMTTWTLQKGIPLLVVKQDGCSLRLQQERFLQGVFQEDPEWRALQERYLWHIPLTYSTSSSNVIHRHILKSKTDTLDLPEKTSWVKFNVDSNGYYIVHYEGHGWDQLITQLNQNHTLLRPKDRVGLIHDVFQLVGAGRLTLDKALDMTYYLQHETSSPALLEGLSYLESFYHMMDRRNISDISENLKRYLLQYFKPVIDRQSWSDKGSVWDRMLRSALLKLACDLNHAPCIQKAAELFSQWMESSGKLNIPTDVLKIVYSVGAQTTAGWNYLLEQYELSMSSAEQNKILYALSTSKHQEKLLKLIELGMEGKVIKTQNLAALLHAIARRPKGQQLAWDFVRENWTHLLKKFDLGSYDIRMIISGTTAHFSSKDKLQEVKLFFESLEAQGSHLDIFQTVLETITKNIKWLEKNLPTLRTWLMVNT

[2] = biological target: Endoplasmic reticulum aminopeptidase 1 (Homo sapiens, UniProt Q9NZ08); assay: Inhibition of human ERAP1 preincubated for 30 to 60 mins followed by addition of Leu-AMC as substrate measured for 15 mins by spectrofluorimetric method
Chain of Endoplasmic reticulum aminopeptidase 1 (Q9NZ08 whole entry): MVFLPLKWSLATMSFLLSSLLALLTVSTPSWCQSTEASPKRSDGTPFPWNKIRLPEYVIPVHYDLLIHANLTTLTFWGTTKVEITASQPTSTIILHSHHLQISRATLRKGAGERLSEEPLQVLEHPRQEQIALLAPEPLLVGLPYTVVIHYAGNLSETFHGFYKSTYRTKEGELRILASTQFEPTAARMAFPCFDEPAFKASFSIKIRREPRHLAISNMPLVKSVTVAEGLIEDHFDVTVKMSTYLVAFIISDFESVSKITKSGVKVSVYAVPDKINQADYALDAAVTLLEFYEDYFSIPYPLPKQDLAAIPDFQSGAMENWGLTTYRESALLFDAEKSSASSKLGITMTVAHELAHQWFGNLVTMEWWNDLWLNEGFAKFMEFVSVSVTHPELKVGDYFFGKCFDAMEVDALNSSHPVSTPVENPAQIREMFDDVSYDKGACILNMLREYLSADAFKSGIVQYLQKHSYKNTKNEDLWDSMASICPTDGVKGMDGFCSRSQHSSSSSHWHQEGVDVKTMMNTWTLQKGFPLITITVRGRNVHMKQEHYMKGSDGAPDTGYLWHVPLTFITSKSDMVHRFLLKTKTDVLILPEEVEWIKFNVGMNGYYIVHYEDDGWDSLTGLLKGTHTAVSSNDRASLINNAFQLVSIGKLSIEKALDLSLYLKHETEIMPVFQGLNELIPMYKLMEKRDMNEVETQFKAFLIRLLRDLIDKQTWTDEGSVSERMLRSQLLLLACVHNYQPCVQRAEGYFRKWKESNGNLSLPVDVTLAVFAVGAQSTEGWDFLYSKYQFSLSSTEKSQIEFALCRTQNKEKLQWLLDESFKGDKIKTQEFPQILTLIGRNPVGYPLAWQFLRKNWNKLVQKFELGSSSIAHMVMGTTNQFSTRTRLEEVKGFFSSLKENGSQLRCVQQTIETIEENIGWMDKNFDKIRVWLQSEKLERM

[3] = Inhibition of Plasmodium falciparum APN preincubated for 30 mins followed by addition of L-Arg-ACC as substrate measured for 15 to 30 mins by fluorescence analysis

| Structure (SMILES) | Ki [2] [µM] | Ki [1] [µM] | Ki [3] [µM] |
| --- | --- | --- | --- |
| NC(CNCCc1ccccc1)P(=O)(O)O (configuration not stated) | > 250 |  |  |
| NCCNCC(N)P(=O)(O)O (configuration not stated) | > 250 | > 250 |  |
| NC(CN1CCOCC1)P(=O)(O)O (configuration not stated) | > 250 | > 250 |  |
| NCc1ccc(CC(CP(=O)(O)C(N)CCc2ccccc2)C(=O)O)cc1 (configuration not stated) |  | > 250 |  |
| NC(CNCc1ccccc1)P(=O)(O)O (configuration not stated) | > 250 | 106 |  |
| CCCCCCNCC(N)P(=O)(O)O (configuration not stated) | > 250 |  |  |
| NC(CN1CCCCC1)P(=O)(O)O (configuration not stated) | > 250 |  |  |
| NC(CNC1CCCCC1)P(=O)(O)O (configuration not stated) | > 250 |  |  |
| NCc1cccc(CC(CP(=O)(O)C(N)CCc2ccccc2)C(=O)O)c1 (configuration not stated) |  | > 250 |  |
| NCC(N)P(=O)(O)O (configuration not stated) | > 250 |  |  |
| CC(C)C[C@@H](N)P(=O)(O)O | 249 | > 250 |  |
| CC(C)C[C@H](N)P(=O)(O)O [LEUCINE PHOSPHONIC ACID] | 5.08 | > 250 |  |
| NCc1cccc(CC(CP(=O)(O)C(N)CCc2cccnc2)C(=O)O)c1 (configuration not stated) |  | > 250 |  |
| CCCNCC(N)P(=O)(O)O (configuration not stated) | > 250 | > 250 |  |
| NC(CNCC1CCCO1)P(=O)(O)O (configuration not stated) | > 250 | > 250 |  |
| CN(C)CCNCC(N)P(=O)(O)O (configuration not stated) | > 250 | > 250 |  |
| NC(CNC1CCCCCC1)P(=O)(O)O (configuration not stated) | > 250 |  |  |
| CNCC(N)P(=O)(O)O (configuration not stated) | > 250 | > 250 |  |
| NC1CCCCC1NCC(N)P(=O)(O)O (configuration not stated) | > 250 |  |  |

Further lines, with some results ahead:

| Ki [2] [µM] | Structure (SMILES) | Ki [1] [µM] | Ki [3] [µM] |
| --- | --- | --- | --- |
| > 250 | Cc1cc(C)cc(CC(CP(=O)(O)C(N)CCc2ccccc2)C(=O)O)c1 (configuration not stated) | > 250 |  |
| > 250 | COc1ccc(CNCC(N)P(=O)(O)O)cc1 (configuration not stated) |  |  |
| 6.27 | N[C@@H](CCc1ccccc1)P(=O)(O)C[C@@H](Cc1ccccc1)C(=O)O (mixture of isomers) | 1.03 |  |
| > 250 | CCCNCC(N)P(=O)(O)CC(Cc1ccccc1)C(=O)O (configuration not stated) |  |  |
| > 250 | NC(CNC1CCCCCC1)P(=O)(O)CC(Cc1ccccc1)C(=O)O (configuration not stated) |  |  |
| > 250 | COc1ccc(CCNCC(N)P(=O)(O)CC(Cc2ccccc2)C(=O)O)cc1 (configuration not stated) |  |  |
| > 250 | NCC(N)P(=O)(O)CC(Cc1ccccc1)C(=O)O (configuration not stated) |  |  |
| > 250 | NC(CNCC1CCNCC1)P(=O)(O)O (configuration not stated) |  |  |
| > 250 | CC(C)CNCC(N)P(=O)(O)CC(Cc1ccccc1)C(=O)O (configuration not stated) |  |  |
| 6.47 | NC(CCc1ccccc1)P(=O)(O)CC(Cc1ccc(O)cc1)C(=O)O (configuration not stated) | 1.04 |  |
| > 250 | Nc1ccc(CNCC(N)P(=O)(O)O)cc1 (configuration not stated) |  |  |
| 19.1 | NC(CCc1ccccc1)P(=O)(O)CC(Cc1ccccc1)C(=O)O (configuration not stated) | 0.35 | 0.078 |
| > 250 | NCc1ccc(CNCC(N)P(=O)(O)O)cc1 (configuration not stated) |  |  |
| > 250 | NC(CNC1CCCCC1)P(=O)(O)CC(Cc1ccccc1)C(=O)O (configuration not stated) |  |  |
| > 250 | CC(NCC(N)P(=O)(O)O)c1ccccc1 (configuration not stated) | > 250 |  |
| > 250 | CC(C)(C)c1ccc(CNCC(N)P(=O)(O)O)cc1 (configuration not stated) |  |  |
| > 250 | COc1ccc(CCNCC(N)P(=O)(O)O)cc1 (configuration not stated) |  |  |
| > 250 | NC(CNCCN1CCNCC1)P(=O)(O)O (configuration not stated) |  |  |
